In patent US11491134B2, “Composition for inhibiting skin cell proliferation and/or anti-inflammation method for inhibiting skin cell proliferation and/or anti-inflammation and method for treating skin diseases and/or inflammatory diseases” (Industrial Technology Research Institute, priority 2019, dated 2022):

System: macrophages, RAW264.7 cells
Experiment: Inhibition rate on inflammation (anti-inflammatory activity): nitric oxide, Griess reagent, LPS-treated macrophages
Assay type: cell-based
Details: Mus musculus; for inhibition at 1.5625 µM: luteolin 1.5625 μM/0.45 μg/mL; for inhibition at 3.125 µM: luteolin 3.125 μM/0.89 μg/mL; for inhibition at 6.25 µM: luteolin 6.25 μM/1.79 μg/mL; for inhibition at 12.5 µM: luteolin 12.5 μM/3.58 μg/mL; for inhibition at 25 µM: luteolin 25 μM/7.16 μg/mL; for inhibition at 50 µM: luteolin 50 μM/14.31 μg/mL; for inhibition at 0.3125 µM: luteolin 0.3125 μM/0.09 μg/mL; for inhibition at 0.625 µM: luteolin 0.625 μM/0.18 μg/mL; for inhibition at 1.25 µM: luteolin 1.25 μM/0.36 μg/mL; for inhibition at 2.5 µM: luteolin 2.5 μM/0.72 μg/mL; for inhibition at 5 µM: luteolin 5 μM/1.43 μg/mL; for inhibition at 100 µM: luteolin 100 μM/28.62 μg/mL
Description: Dimethyl sulfoxide (DMSO) was used as a solvent to prepare apigenin test samples with different concentrations and luteolin test samples with different concentrations. 9 batches of experiments were performed, which respectively were Batch 1 to Batch 9. There were 6 independent experiments in each batch of experiments. In each independent experiment, inhibition rate of an apigenin test sample with a specific concentration on inflammation and inhibition rate of a luteolin test sample with a specific concentration on inflammation were determined, and inhibition rate of a combination of an apigenin test sample with the said specific concentration and a luteolin test sample with the said specific concentration on inflammation was determined. Between the independent experiments, concentrations of apigenin test samples used were different, and concentrations of luteolin test samples used were also different, however, mole ratios or weight ratios of apigenin test samples to luteolin test samples were the same. Moreover, between the batches of experiments, mole ratios or weight ratios of apigenin test samples to luteolin test samples were different. 5×10^4 macrophages, RAW264.7 cells, were inoculated in a 96-well culture plate and then placed in a 37° C. and 5% CO2 incubator for culturing overnight. After overnight culture, the supernatant was removed, and lipopolysaccharide (LPS) (50 ng/mL) and a test sample was added to the cells (refer to Table 2, and the cells of the induced group were treated with lipopolysaccharide and dimethyl sulfoxide while the cells of the control group were only treated with dimethyl sulfoxide) for reaction for 24 hours. Thereafter, the supernatant of each well in the culture plate was transferred to a new culture plate and reacted with Griess reagent (Promega, Cat. No. G2930), respectively, and then the absorbance of each well of the culture plate was determined at 540 nm by a continuous wavelength microplate reader to evaluate the content of nitric oxide (NO), and anti-inflammatory activity was calculated through the following formula: Anti-inflammation=(Induced group540 nm−Experimental group540 nm)/(Induced group540 nm−Control group540 nm) In this experiment, the synergistic effects of apigenin and luteolin were evaluated by CalcuSyn software (BIOSOFT). CalcuSyn software is an analysis software which is commonly used to analyze the drug dosage effect of single drug and multiple drugs at present. CalcuSyn software can be used to analyze drug complex interactions and automatically quantify various phenomena such as synergism and inhibition. CalcuSyn software can process the data of individual drugs and combination drugs with constant-ratio or on-constant-ratio, and can evaluate the interaction of combination drugs by the combination index (CI) (Chou and Talalay, Adv. Enzyme Regul. 22:27-55 (1984) calculated by CalcuSyn software. Calculation formula for the combination index is shown in the following: Combination index=C1/IC1+C2/IC2 C1 and C2 are the respective concentrations of the first compound and the second compound at which the activity of achieving a specific physiological or medical purpose is 50% (or 75%, or 90%) when the first compound and the second compound are analyzed in combination; IC1 and IC2 are the respective concentrations at which the activity of achieving a specific physiological or medical purpose of the first compound and the second compound is 50% (or 75%, or 90%) when the first compound and the second compound are independently analyzed. […]

`O=c1cc(-c2ccc(O)c(O)c2)oc2cc(O)cc(O)c12` [Luteolin, luteolin] showed an inhibition at 1.5625 µM (RAW264.7, Batch 1) of 0.1%, an inhibition at 3.125 µM (RAW264.7, Batch 1) of 21.4% and an inhibition at 6.25 µM (RAW264.7, Batch 1) of 37.2%. The inhibition at 12.5 µM (RAW264.7, Batch 1) was 56.3%, the inhibition at 25 µM (RAW264.7, Batch 1) was 84.1% and the inhibition at 50 µM (RAW264.7, Batch 1) was 99.9%. It also gave an inhibition at 0.78 µM (RAW264.7, Batch 2, luteolin 0.78 μM/0.22 μg/mL) of 0.1%, an inhibition at 1.5625 µM (RAW264.7, Batch 2) of 5.8% and an inhibition at 3.125 µM (RAW264.7, Batch 2) of 15.4%. For the same compound, the inhibition at 6.25 µM (RAW264.7, Batch 2) was 29.9%, the inhibition at 12.5 µM (RAW264.7, Batch 2) was 48.8% and the inhibition at 25 µM (RAW264.7, Batch 2) was 75.7%. The inhibition at 0.3125 µM (RAW264.7, Batch 3) was 0.1%, the inhibition at 0.625 µM (RAW264.7, Batch 3) was 0.1% and the inhibition at 1.25 µM (RAW264.7, Batch 3) was 0.1%. For the same compound, the inhibition at 2.5 µM (RAW264.7, Batch 3) was 5.1%, the inhibition at 5 µM (RAW264.7, Batch 3) was 49% and the inhibition at 10 µM (RAW264.7, Batch 3, luteolin 10 μM/2.86 μg/mL) was 80.3%. The inhibition at 0.15625 µM (RAW264.7, Batch 4, luteolin 0.15625 μM/0.04 μg/mL) was 0.1%, the inhibition at 0.3125 µM (RAW264.7, Batch 4) was 0.1% and the inhibition at 0.625 µM (RAW264.7, Batch 4) was 0.1%. It also gave an inhibition at 1.25 µM (RAW264.7, Batch 4) of 0.1%, an inhibition at 2.5 µM (RAW264.7, Batch 4) of 0.1% and an inhibition at 5 µM (RAW264.7, Batch 4) of 35.9%. For the same compound, the inhibition at 0.078 µM (RAW264.7, Batch 5, luteolin 0.078 μM/0.02 μg/mL) was 0.1%, the inhibition at 0.156 µM (RAW264.7, Batch 5, luteolin 0.156 μM/0.04 μg/mL) was 0.1% and the inhibition at 0.3125 µM (RAW264.7, Batch 5) was 9.8%. The inhibition at 0.625 µM (RAW264.7, Batch 5) was 3.1%, the inhibition at 1.25 µM (RAW264.7, Batch 5) was 0.5% and the inhibition at 2.5 µM (RAW264.7, Batch 5) was 16.1%. The inhibition at 3.125 µM (RAW264.7, Batch 6) was 11.1%, the inhibition at 6.25 µM (RAW264.7, Batch 6) was 40.8% and the inhibition at 12.5 µM (RAW264.7, Batch 6) was 67.1%. It also gave an inhibition at 25 µM (RAW264.7, Batch 6) of 89.6%, an inhibition at 50 µM (RAW264.7, Batch 6) of 99.9% and an inhibition at 100 µM (RAW264.7, Batch 6) of 99.9%. It also gave an inhibition at 3.125 µM (RAW264.7, Batch 7) of 13.3%, an inhibition at 6.25 µM (RAW264.7, Batch 7) of 43.9% and an inhibition at 12.5 µM (RAW264.7, Batch 7) of 70.2%. For the same compound, the inhibition at 25 µM (RAW264.7, Batch 7) was 89.3%, the inhibition at 50 µM (RAW264.7, Batch 7) was 99.9% and the inhibition at 100 µM (RAW264.7, Batch 7) was 99.9%. It also gave an inhibition at 3.125 µM (RAW264.7, Batch 8) of 8.9%, an inhibition at 6.25 µM (RAW264.7, Batch 8) of 34.4% and an inhibition at 12.5 µM (RAW264.7, Batch 8) of 67.9%. It also gave an inhibition at 25 µM (RAW264.7, Batch 8) of 90.4%, an inhibition at 50 µM (RAW264.7, Batch 8) of 99.9% and an inhibition at 100 µM (RAW264.7, Batch 8) of 99.9%. It also gave an inhibition at 1.5625 µM (RAW264.7, Batch 9) of 4.9%, an inhibition at 3.125 µM (RAW264.7, Batch 9) of 26.5% and an inhibition at 6.25 µM (RAW264.7, Batch 9) of 67%. For the same compound, the inhibition at 12.5 µM (RAW264.7, Batch 9) was 87%, the inhibition at 25 µM (RAW264.7, Batch 9) was 94.2% and the inhibition at 50 µM (RAW264.7, Batch 9) was 98.3%.
